Test [1] has as its system Rattus norvegicus. Put plainly: T4 level in rats at 24 hr r after 30 mg/kg oral dose. The test is classed as functional.
Test [2] concerns the target T1, Retinoic acid receptor RXR-alpha (Rattus norvegicus, UniProt Q05343).
T1 sequence (Q05343 whole entry): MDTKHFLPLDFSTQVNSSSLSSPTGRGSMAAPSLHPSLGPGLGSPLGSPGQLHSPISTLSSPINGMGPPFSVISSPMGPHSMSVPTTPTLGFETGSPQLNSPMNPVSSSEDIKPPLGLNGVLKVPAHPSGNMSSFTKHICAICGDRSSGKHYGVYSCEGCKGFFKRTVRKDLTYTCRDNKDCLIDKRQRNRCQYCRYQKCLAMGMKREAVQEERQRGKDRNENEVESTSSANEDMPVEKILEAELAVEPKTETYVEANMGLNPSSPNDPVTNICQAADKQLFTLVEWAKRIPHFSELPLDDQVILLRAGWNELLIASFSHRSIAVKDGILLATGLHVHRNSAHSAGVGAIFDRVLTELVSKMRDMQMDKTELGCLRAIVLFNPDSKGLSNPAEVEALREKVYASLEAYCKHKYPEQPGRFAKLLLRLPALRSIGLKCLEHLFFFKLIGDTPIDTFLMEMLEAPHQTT
Put plainly: In vitro transcriptional activation in CV-1 cells expressing RXR-alpha; No activity. The test is classed as cell-based.

Test [3] is described as follows: In vitro evaluation against RXR-alpha/PPAR-gamma in CV-1 cells by cotransfection assay was determined. It counts as cell-based.
The test system of another test is CV-1. Nature of the test: In vitro evaluation against RXR-alpha/PPAR-gamma in CV-1 cells by cotransfection assay. The test is classed as cell-based.
Test [4] in a line: In vitro transcriptional activation in CV-1 cells expressing RXR-alpha and PPARgamma; No activity. It counts as cell-based, Rattus norvegicus.
For a further test, the system named is Mus musculus. Nature of the test: Hypoglycemic activity in db/db mouse model after 7 days at 10 mg/kg/day oral dose. It counts as functional.
In test [5] the target is T2, Retinoic acid receptor RXR-alpha (Rattus norvegicus) (UniProt Q05343).
T2 sequence (whole entry): T1 sequence (Q05343 whole entry)
To be noted: CV-1.

For test [6], the system named is Rattus norvegicus. Nature of the test: Triglyceride level in rats 2 hr r after 30 mg/kg oral dose.

pEC50: −log10 of the molar value. Activity calls are given as the source filed them. The calls are words filed in the database; no cut-off is given here.

`CN(CCOc1ccc(CC2SC(=O)NC2=O)cc1)c1ccccn1` (stereo not drawn) [ROSIGLITAZONE] had a T4 in the test on Rattus norvegicus [1] of 70 ng/mL. Besides, the Ki result in test [2] and in test [4] was “Not Active” throughout. Also, the pEC50 in test [3] is 6.49. The molecule also registered an Efficacy in the test on CV-1 of 100%. In the test on Mus musculus, this molecule showed an Activity of 412 mg/dL. Besides, the Synergy entry in test [5] was “inactive”. For the same molecule, the Triglycerides in the test with Rattus norvegicus [6] was 78 mg/dL.

As a reminder, the pEC50 is the negative decadic logarithm of the EC50, by convention in mol/L.

The values are drawn from ChEMBL document CHEMBL1144879, “Design, synthesis, and structure-activity relationship studies of novel 6,7-locked-[7-(2-alkoxy-3,5-dialkylbenzene)-3-methylocta]-2,4,6-trienoic acids” (J Med Chem, 2003).
